Consider 6 compounds from ChEMBL document CHEMBL1955731, “Design and synthesis of novel bone-targeting dual-action pro-drugs for the treatment and reversal of osteoporosis” (Bioorg Med Chem, 2012).

Data set [1] deals with Plasma. Put plainly: Prodrug conversion in rat plasma assessed as compound conversion to 7-((R)-2-((R,E)-4,4-difluoro-3-hydroxy-4-phenylbut-1-enyl)-5-oxopyrrolidin-1-yl)heptanoic acid at 100 ug/ml after 30 mins by HPLC analysis. Format: ADME, cell-free. The conditions noted are these: 0.5 h.
In data set [2] the test system is Bone. Put plainly: Binding affinity to rat bone at 0.1 mg/ml after 10 mins. Format: ADME, tissue-based, Bone element.
In data set [3] the test system is Bone. Put plainly: Drug uptake in rat bone after 5 mins. Format: ADME, tissue-based, Bone element. The settings on record: in vivo.
Data set [4] in a line: Elimination half life in Sprague-Dawley rat at 5 mg/kg, iv. Format: ADME, organism-based. More on the design: dose 5 mg/kg, route intravenous. The settings on record: in vivo, read-out: beta t1/2.
The test system of data set [5] is Bone. As to the kind of experiment: Drug uptake in Sprague-Dawley rat bone at 5 mg/kg, iv after 24 hrs. Format: ADME, organism-based, Bone element. The conditions noted are these: in vivo. More on the design: dose 5 mg/kg, route intravenous.
Data set [6] deals with Bone. Put plainly: Drug uptake in Sprague-Dawley rat bone at 5 mg/kg, iv after 7 days. Format: ADME, organism-based, Bone element. The conditions noted are these: in vivo, 168 h. The arrangement: dose 5 mg/kg, route intravenous.
For data set [7], the system named is Bone. Put plainly: Drug uptake in Sprague-Dawley rat bone at 5 mg/kg, iv after 14 days. Format: ADME, organism-based, Bone element. More on the design: dose 5 mg/kg, route intravenous. The conditions noted are these: in vivo, 336 h.
For data set [8], the system named is Bone. Put plainly: Drug uptake in Sprague-Dawley rat bone at 5 mg/kg, iv after 28 days. Format: ADME, organism-based, Bone element. The arrangement: dose 5 mg/kg, route intravenous. The settings on record: in vivo, 672 h.
For a further data set, the system named is Rattus norvegicus. Put plainly: Toxicity in Sprague-Dawley rat at 5 mg/kg, iv. Format: organism-based. More on the design: dose 5 mg/kg, route intravenous. The conditions noted are these: in vivo.
Data set [9] can be described thus: Drug excretion in Sprague-Dawley rat feces at 5 mg/kg, iv after 24 hrs. Format: ADME, organism-based. More on the design: dose 5 mg/kg, route intravenous. The conditions noted are these: in vivo.
The nature of data set [10]: Drug excretion in Sprague-Dawley rat urine at 5 mg/kg, iv after 24 hrs. Format: ADME, organism-based. More on the design: dose 5 mg/kg, route intravenous. The conditions noted are these: in vivo.
For data set [11], the system named is Bone. As to the kind of experiment: Drug uptake in Sprague-Dawley rat bone at 10 mg/kg, iv after 6 hrs. Format: ADME, organism-based, Bone element. The settings on record: in vivo. The arrangement: dose 10 mg/kg, route intravenous.
Data set [12] deals with Bone. Put plainly: Drug uptake in Sprague-Dawley rat bone at 10 mg/kg, iv after 2 days. Format: ADME, organism-based, Bone element. The arrangement: dose 10 mg/kg, route intravenous. The conditions noted are these: in vivo, 48 h.
The test system of data set [13] is Bone. Put plainly: Drug uptake in Sprague-Dawley rat bone at 10 mg/kg, iv after 7 days. Format: ADME, organism-based, Bone element. More on the design: dose 10 mg/kg, route intravenous. The settings on record: in vivo, 168 h.
Data set [14] has as its system Bone. As to the kind of experiment: Drug uptake in Sprague-Dawley rat bone at 10 mg/kg, iv after 14 days. The arrangement: dose 10 mg/kg, route intravenous. Format: ADME, organism-based, Bone element. The settings on record: in vivo, 336 h.
Data set [15] can be described thus: Elimination half life in Sprague-Dawley rat at 10 mg/kg, iv. Format: ADME, organism-based. The arrangement: dose 10 mg/kg, route intravenous. The conditions noted are these: in vivo, read-out: beta t1/2.
Data set [16] has as its system Plasma. Put plainly: Prodrug conversion in rat plasma assessed as compound conversion to 7-((R)-2-((R,E)-4,4-difluoro-3-hydroxy-4-phenylbut-1-enyl)-5-oxopyrrolidin-1-yl)heptanoic acid at 100 ug/ml for 96 hrs by HPLC-MS-MS analysis. Format: ADME, cell-free.

Structures are written as SMILES.

Turning to `CCOC(=O)CCCCCCN1C(=O)CC[C@@H]1/C=C/[C@@H](O)C(F)(F)c1ccccc1`, in the data set with Plasma [1], the Drug metabolism entry is listed as “Active”. Further, the Activity entry in the data set on Bone [2] was “Not Active”.

On to `[3H]C([3H])([3H])COC(=O)CCCCCCN1C(=O)CC[C@@H]1/C=C/[C@@H](OC(=O)NCCCC(O)(P(=O)(O)O)P(=O)(O)O)C(F)(F)c1ccccc1`, for which the values for the Activity in the data set on Bone [2] and in the data set with Rattus norvegicus were 90% and “Non-toxic”, respectively. Besides, the Drug uptake with Bone [3] is on record as 96%; with Bone [5], 9.4%; in the data set on Bone [6], 8%; in the data set with Bone [7], 6.2%; with Bone [8] it was 5.6%. Besides, in data set [4], the half-life is below 15 min. Further, the Drug excretion result in data set [9] is on record as “Active”; in data set [10] it was “Not Active”.

Take `O=C(O)CCCCCCN1C(=O)CC[C@@H]1/C=C/[C@@H](O)C(F)(F)c1ccccc1`: in the data set with Bone [2], the Activity entry was “Not Active”.

On to `O=C1CC[C@H](/C=C/[C@@H](O)C(F)(F)c2ccccc2)N1CCCCCCc1nnn[nH]1`, for which the Activity entry with Bone [2] was “Not Active”.

Turning to `CCN(CC)CC.[3H]C([3H])([3H])COC(=O)CCCCCCN1C(=O)CC[C@@H]1/C=C/[C@@H](OC(=O)Cc1ccc(OC(=O)NCCCC(O)(P(=O)(O)O)P(=O)(O)O)cc1)C(F)(F)c1ccccc1`, the Drug uptake stood at 5.9% in the data set with Bone [11], 4.9% in the data set with Bone [12], 2.2% with Bone [13] and 1.4% in the data set on Bone [14]. Moreover, the half-life in [15] was below 30 min.

On to `CCOC(=O)CCCCCCN1C(=O)CC[C@@H]1/C=C/[C@@H](OC(=O)NCCCC(O)(P(=O)(O)O)P(=O)(O)O)C(F)(F)c1ccccc1`, for which the Drug metabolism entry in the data set on Plasma [16] was “Not Active”.
